Data reported in patent publication US20030129222A1, “Liposomal imexon” (priority 2000, published 2003).
pIC50: −log10 of the molar value. Where two headings read alike, the source gives them in different places. Starred links: 1 amine or outer side, 2 acyl side, 3 side chain; linkers in the order of their positions; H or OH if unused. Positions of bridges follow the written chain, without caps; N, C: chain ends. Non-standard residues stand in square brackets, D forms with d. Residues, ends and D or L forms follow the SMILES beside them. Chains are numbered I, II in the order given. Actinocin(9to1) = Cc1c2oc3c(C)ccc(C(=O)[*:1])c3nc-2c(C(=O)[*:2])c(N)c1=O; NMeV = CN[C@H](C(=O)O)C(C)C; Sar = CNCC(=O)O

Tests used:
[1] = cited from earlier work
L1210 leukemia, Mdr = experiment: Cytotoxicity in tumor cell culture, MTT assay; format: cell-based, murine; conditions: MTT assay, multidrug-resistant; read-out: IC50 against human mouse tumors, L1210 leukemia Mdr
Excerpt: (§1) Relative potencies of the N-substituted 2-cyanoaziridine-1-carboxamides in a panel of tumor cell cultures are compared in Table 3. This panel includes the following lines of human tumor cells: sensitive and imexon-resistant lines of multiple myeloma (Matsuoka et al., 1967); ovarian carcinoma resistant to standard drugs (Hamilton et al., 1984); melanoma with a slow growth fraction (Girard et al., 1973); breast carcinoma including sensitive, doxorubicin-resistant (P-glycoprotein-positive) (Taylor et al., 1991), and mitoxantrone-resistant (P-glycoprotein-negative) (Futscher et al., 1994) lines; sensitive and multidrug-resistant colon carcinoma (Noguchi et al., 1979; Dalton et al., 1988); and multidrug-resistant lung carcinoma (P-glycoprotein-negative) (Girard et al., 1973). It also has sensitive (Goldin et al., 1961) and multidrug-resistant (P-glycoprotein-positive) (Salmon and Hersh, 1994) murine L1210 leukemia cells.

L1210 leukemia, Sens = experiment: Cytotoxicity in tumor cell culture, MTT assay; format: cell-based, murine; conditions: MTT assay; read-out: IC50 against human mouse tumors, L1210 leukemia Sens
Excerpt: as §1

[2] = system: 8226 myeloma, Sens (drug-sensitive); experiment: Cytotoxicity in tumor cell culture, SRB assay; format: cell-based, human; conditions: for Log(1/C) / IC50: against sensitive myeloma; for IC50: values repeated from Table 3 (μM there), read-out: IC50; for pIC50: drug-sensitive line, read-out: IC50 against human mouse tumors, 8226 myeloma Sens
Excerpt: as §1

A-549 lung = experiment: Cytotoxicity in tumor cell culture, SRB assay; format: cell-based, human; conditions: read-out: IC50 against human mouse tumors, A-549 lung
Excerpt: as §1

A375 melan = experiment: Cytotoxicity in tumor cell culture, SRB assay; format: cell-based, human; conditions: read-out: IC50 against human mouse tumors, A375 melan
Excerpt: as §1

[3] = system: MCF7 breast, Dox (doxorubicin-resistant); experiment: Cytotoxicity in tumor cell culture, SRB assay; format: cell-based, human; conditions: doxorubicin-resistant; read-out: IC50 against human mouse tumors, MCF7 breast Dox
Excerpt: as §1

MCF7 breast, Sens = experiment: Cytotoxicity in tumor cell culture, SRB assay; format: cell-based, human; conditions: read-out: IC50 against human mouse tumors, MCF7 breast Sens
Excerpt: as §1

[4] = system: MCF7 breast, mitox (mitoxantrone-resistant); experiment: Cytotoxicity in tumor cell culture, SRB assay; format: cell-based, human; conditions: mitoxantrone-resistant; read-out: IC50 against human mouse tumors, MCF7 breast mitox
Excerpt: as §1

OVCAR3 ovarian = experiment: Cytotoxicity in tumor cell culture, SRB assay; format: cell-based, human; conditions: read-out: IC50 against human mouse tumors, OVCAR3 ovarian
Excerpt: as §1

[5] = system: 8226 myeloma, Res (imexon-resistant); experiment: Cytotoxicity in tumor cell culture, SRB assay; format: cell-based; conditions: line made resistant to imexon; read-out: IC50 against human mouse tumors, 8226 myeloma Res
Excerpt: as §1

WiDr colon, Sens = experiment: Cytotoxicity in tumor cell culture, SRB assay; format: cell-based; conditions: read-out: IC50 against human mouse tumors, WiDr colon Sens
Excerpt: as §1

WiDr colon, res = experiment: Cytotoxicity in tumor cell culture, SRB assay; format: cell-based; conditions: multidrug-resistant; read-out: IC50 against human mouse tumors, WiDr colon res
Excerpt: as §1

[6] = substituent constant, from Hansch and Leo or calculated using Clog P software; cited from earlier work
[7] = single oral doses of about 0.6 mg/kg to about […]

| SMILES | pIC50 (L1210 leukemia, Mdr) | pIC50 (L1210 leukemia, Sens) | Log(1/C) [2] | IC50 [2] [µM] | pIC50 [2] | pIC50 (A-549 lung) | pIC50 (A375 melan) | pIC50 [3] | pIC50 (MCF7 breast, Sens) | pIC50 [4] | pIC50 (OVCAR3 ovarian) | pIC50 [5] | pIC50 (WiDr colon, Sens) | pIC50 (WiDr colon, res) | π [6] | further results |
| --- | --- | --- | --- | --- | --- | --- | --- | --- | --- | --- | --- | --- | --- | --- | --- | --- |
| Cc1c2oc3c(C)ccc(C(=O)N[C@@H]4C(=O)N[C@H](C(C)C)C(=O)N5CCC[C@H]5C(=O)N(C)CC(=O)N(C)[C@@H](C(C)C)C(=O)O[C@@H]4C)c3nc-2c(C(=O)N[C@@H]2C(=O)N[C@H](C(C)C)C(=O)N3CCC[C@H]3C(=O)N(C)CC(=O)N(C)[C@@H](C(C)C)C(=O)O[C@@H]2C)c(N)c1=O [Actinomycin D] (I: T[dV]P[Sar][NMeV] / II: T[dV]P[Sar][NMeV]; ester I:1-I:C, II:1-II:C; linker I:N-II:N via Actinocin(9to1)) |  |  |  |  |  |  |  |  |  |  |  |  |  |  |  | dose excreted intact into the bile ([1]; in vivo): Half; dose excreted intact into the urine ([1]; in vivo): 10%; half-life ([1]; in vivo): about 36 hours; passage of the blood-brain barrier ([1]; in vivo): does not pass the blood-brain barrier |
| O=C(O)CCCc1ccc(N(CCCl)CCCl)cc1 [Chlorambucil, 4-[bis(2-chlorethyl)amino] benzenebutanoic acid] |  |  |  |  |  |  |  |  |  |  |  |  |  |  |  | oral absorption ([1]; in vivo): rapidly and completely absorbed; terminal half-life of the parent drug [1, 7]: about 1.5 hours; time to peak plasma chlorambucil levels [1, 7]: one |
| N.N.[Cl][Pt][Cl] [Cisplatin] |  |  |  |  |  |  |  |  |  |  |  |  |  |  |  | oral absorption ([1]; in vivo): not absorbed orally |
| CCNC(=O)N1CC1C#N (stereo not shown) [Compound 7, 2-Cyanoaziridine-1-(N-ethyl) carboxamide] | 4.85 | 4.85 | 4.66 | 22 | 4.66 | 4.74 | 4.44 | 4.70 | 4.54 | 5.00 | 4.85 | 4.59 | 5.40 | 5.15 | 1.02 |  |
| CCCCNC(=O)N1CC1C#N (stereo not shown) [Compound 8, 2-Cyanoaziridine-1-(N-butyl) carboxamide] | 4.92 | 4.92 | 4.77 | 17 | 4.77 | 4.74 | 4.82 | 5.17 | < 4.92 | < 4.92 | 4.92 | 4.77 | 4.85 | 4.74 | 2.00 |  |
| CC(C)(C)NC(=O)N1CC1C#N (stereo not shown) [Compound 9, 2-Cyanoaziridine-1-(N-t-butyl) carboxamide] | 3.34 | 3.88 | 3.92 | 120 | 3.92 | 3.74 | 3.38 | 3.72 | < 3.52 | 3.92 | 3.73 | 3.67 | 3.74 | < 3.52 | 1.98 |  |
| N#CC1CN1C(=O)NC1CCCCC1 (stereo not shown) [Compound 10, 2-Cyanoaziridine-1-(N-cyclohexyl) carboxamide] | 4.80 | 5.13 | 4.44 | 36 | 4.44 | 5.00 | 4.46 | 5.05 | 4.89 | 5.01 | 4.51 | 4.01 | 5.62 | 4.92 | 2.51 |  |
| N#CC1CN1C(=O)NCc1ccccc1 (stereo not shown) [Compound 11, 2-Cyanoaziridine-1-(N-benzyl) carboxamide] | 5.00 | 5.42 | 5.05 | 9 | 5.05 | 5.13 | 4.96 | 5.22 | 5.13 | 5.47 | 5.30 | 4.96 | 5.28 | 5.00 | 2.50 |  |
| CCOC(=O)CNC(=O)N1CC1C#N (stereo not shown) [Compound 12] | 4.89 | 4.89 | 4.60 | 25 | 4.60 | 4.62 | 4.29 | 4.77 | 4.82 | 4.96 |  | 4.52 | 4.51 | 4.48 | 1.01 |  |
